Assay results taken from patent publication US20110039763A1, “TARGETED ANTIMICROBIAL MOIETIES” (C3 JIAN, INC., priority 2009, published 2011).
Entries after “also recorded” stand apart in the source; their conditions may differ.

Tests used:
microorganisms [1] = test: Peptide activities: targeting/binding, antimicrobial, growth or phenotype altering (Tables 7, 8); assay type: cell-based; settings: peptides having multiple activities
microorganisms [2] = test: Targeting peptide binding to target microorganisms (Tables 3, 10, 12); settings: microorganism(s) the targeting peptide binds, preferably 1x PBS
microorganisms [3] = test: Morphology, biofilm and growth disrupting peptides (Table 5); assay type: cell-based; design: key: A: Peptide aggregates; B: Less hyphal formation; Clumps; Diffuse clumps and small polyps; F: Diffuse growth; H: Thin; I: Growth inhibition; Microcolony formation; Rippled; Small polyps; Thick; W: Halo formation on top, microlonies on bottom
Source text: In certain embodiments peptides that induce alterations in phenotype or other biological activities can also be used as antimicrobial effector moieties.

[4] = binding in aqueous buffers that varied with peptide solubility
[5] = binding in aqueous buffers varied with peptide solubility

Substance | Activities (microorganisms [1]) | Target(s) (microorganisms [2]; [5]) | Organism, effect: S. epidermidis (microorganisms [3]) | Organism, effect: C. jeikeium (microorganisms [3]) | also measured
PF-069: peptide having multiple activities (chain 1 FDPVPLKKDKSASKHSHKHNH; chain 2 FDPVPLKKDKSASKHSHKHNH; Peptide with targeting and/or antimicrobial activity) | G B |  |  |  | Target(s) (microorganisms [2]; [4]): E. faecalis; also recorded: C. jejuni; Organism, effect: B. subtilis (microorganisms [3]): B. subtilis (D); Organism, effect: C. jejuni (microorganisms [3]): C. jejuni (R)
PF-070: peptide having multiple activities (chain 1 SMVKSEIVDLLNGEDNDD; chain 2 SMVKSEIVDLLNGEDNDD; Peptide with targeting and/or antimicrobial activity) | G B |  |  |  | Target(s) (microorganisms [2]; [4]): S. epidermidis; also recorded: C. jejuni; Organism, effect: B. subtilis (microorganisms [3]): B. subtilis (D)
PF-074: peptide having multiple activities (chain 1 RDIHPIYFMTKD; chain 2 RDIHPIYFMTKD; Peptide with targeting and/or antimicrobial activity) | G B | S. epidermidis and M. luteus and MRSA | S. epidermidis (D) |  | Organism, effect: MRSA (microorganisms [3]): MRSA (M)
PF-099: peptide having multiple activities (chain 1 EIIAYLEGRFANA; chain 2 EIIAYLEGRFANA; Peptide with targeting and/or antimicrobial activity) | G B | S. epidermidis; also recorded: M. luteus; also recorded: E. coli; also recorded: C. jeikeium | S. epidermidis (D) | C. jeikeium (C) | 
PF-123: peptide having multiple activities (chain 1 TTRPQVAEDRQLDDALKETFPASDPISP; chain 2 TTRPQVAEDRQLDDALKETFPASDPISP; Peptide with targeting and/or antimicrobial activity) | G B | M. luteus; also recorded: E. coli | S. epidermidis (M) |  | 
PF-128: peptide having multiple activities (chain 1 GIKVVAARFEEIQFSENFDSIILA; chain 2 GIKVVAARFEEIQFSENFDSIILA; Peptide with targeting and/or antimicrobial activity) | G B | M. luteus; also recorded: P. aeruginosa; also recorded: E. faecalis | S. epidermidis (D) |  | Organism, effect: P. aeruginosa (microorganisms [3]; P. aeruginosa): P. aeruginosa (C)
PF-129: peptide having multiple activities (chain 1 MKLLARDPWVCAWNDIW; chain 2 MKLLARDPWVCAWNDIW; Peptide with targeting and/or antimicrobial activity) | G B | S. epidermidis and MRSA and E. faecalis and C. jeikeium and C. jejuni | S. epidermidis (M) | C. jeikeium (R) | 
PF-133: peptide having multiple activities (chain 1 GDPTAGQKPVECP; chain 2 GDPTAGQKPVECP; Peptide with targeting and/or antimicrobial activity) | G B | S. epidermidis; also recorded: C. jeikeium; also recorded: C. jejuni; also recorded: M. smegmatis |  | C. jeikeium (R) | 
PF-135: peptide having multiple activities (chain 1 PPARPARIPQTPTLHGASLFRQRS; chain 2 PPARPARIPQTPTLHGASLFRQRS; Peptide with targeting and/or antimicrobial activity) | G B | S. epidermidis and M. luteus and E. coli and P. aeruginosa and MRSA and C. jeikeium and M. smegmatis |  | C. jeikeium (R) | 
PF-144: peptide having multiple activities (chain 1 RSGQPVGRPSRRAWLR; chain 2 RSGQPVGRPSRRAWLR; Peptide with targeting and/or antimicrobial activity) | G B | S. epidermidis and M. luteus and E. coli and C. albicans and MRSA and S. pneumoniae and E. faecalis and C. jeikeium |  |  | Organism, effect: S. pneumoniae (microorganisms [3]): S. pneumoniae (H)
PF-149: peptide having multiple activities (chain 1 GKVSVLTRVPRSLGGAPANQ; chain 2 GKVSVLTRVPRSLGGAPANQ; Peptide with targeting and/or antimicrobial activity) | G B | S. epidermidis and M. luteus and E. coli and MRSA and C. jeikeium |  |  | Organism, effect: MRSA (microorganisms [3]): MRSA (H)
PF-153: peptide having multiple activities (chain 1 GILARADCSQIA; chain 2 GILARADCSQIA; Peptide with targeting and/or antimicrobial activity) | G B | M. luteus and P. mirabilis and E. coli and MRSA | S. epidermidis (M) | C. jeikeium (C) | 
PF-156: peptide having multiple activities (LITAEQPATAPIAGK; Peptide with targeting and/or antimicrobial activity) | G B | S. epidermidis; also recorded: C. jeikeium |  |  | Organism, effect: MRSA (microorganisms [3]): MRSA (H)
PF-164: peptide having multiple activities (EEVSRALAGIGLGLGCRIG; Peptide with targeting and/or antimicrobial activity) | G B | S. epidermidis; also recorded: M. luteus; also recorded: E. coli; also recorded: C. jeikeium |  | C. jeikeium (R) | 
PF-171: peptide having multiple activities (TQVTLCRTW; Peptide with targeting and/or antimicrobial activity) | G B | S. epidermidis; also recorded: E. coli; also recorded: P. aeruginosa; also recorded: S. pneumoniae | S. epidermidis (R) |  | Organism, effect: B. subtilis (microorganisms [3]): B. subtilis (D); Organism, effect: C. jejuni (microorganisms [3]): C. jejuni (R); Organism, effect: M. luteus (microorganisms [3]): M. luteus (R); Organism, effect: MRSA (microorganisms [3]): MRSA (M); Organism, effect: S. pneumoniae (microorganisms [3]): S. pneumoniae (D)
PF-173: peptide having multiple activities (AGRTAIVQGGG; Peptide with targeting and/or antimicrobial activity) | G B | S. epidermidis; also recorded: M. luteus; also recorded: P. mirabilis; also recorded: E. coli; also recorded: P. aeruginosa; also recorded: C. albicans; also recorded: C. jeikeium; also recorded: C. jejuni | S. epidermidis (A) | C. jeikeium (D) | 
PF-175: peptide having multiple activities (RRRPAGQRPEKASQAMIAA; Peptide with targeting and/or antimicrobial activity) | G B | S. epidermidis; also recorded: E. faecalis |  |  | Organism, effect: B. subtilis (microorganisms [3]): B. subtilis (D); Organism, effect: C. albicans (microorganisms [3]; C. albicans): C. albicans (B); Organism, effect: C. jejuni (microorganisms [3]): C. jejuni (M); Organism, effect: M. luteus (microorganisms [3]): M. luteus (S); Organism, effect: S. pneumoniae (microorganisms [3]): S. pneumoniae (A)
PF-176: peptide having multiple activities (RLTSNQFLTRITPFVFAQH; Peptide with targeting and/or antimicrobial activity) | G B | S. epidermidis and M. luteus and P. mirabilis and E. coli and C. albicans and MRSA and E. faecalis and C. jeikeium | S. epidermidis (C) | C. jeikeium (D) | Organism, effect: M. luteus (microorganisms [3]): M. luteus (C)
PF-180: peptide having multiple activities (SGLGDLGFSSEAK; Peptide with targeting and/or antimicrobial activity) | G B | S. epidermidis and M. luteus and P. aeruginosa and C. albicans and MRSA and E. faecalis and C. jejuni and M. smegmatis | S. epidermidis (C) |  | 
PF-186: peptide having multiple activities (DADKNLSLERDRFAWRVAAP; Peptide with targeting and/or antimicrobial activity) | G B | S. epidermidis and M. luteus and E. coli and P. aeruginosa and MRSA and C. jeikeium | S. epidermidis (C) | C. jeikeium (A) | 
PF-188: peptide having multiple activities (ARTFAGRLGTRYFGGLMRSTKA; Peptide with targeting and/or antimicrobial activity) | G B | S. epidermidis and M. luteus and E. coli and C. albicans and MRSA and E. faecalis |  | C. jeikeium (H) | 
PF-191: peptide having multiple activities (QFCNFAWLFLASNNAQVSALA; Peptide with targeting and/or antimicrobial activity) | G B | E. coli; also recorded: P. aeruginosa; also recorded: C. jejuni | S. epidermidis (A) | C. jeikeium (R) | Organism, effect: MRSA (microorganisms [3]): MRSA (H)
PF-192: peptide having multiple activities (VEEDEAPPPHY; Peptide with targeting and/or antimicrobial activity) | G B | S. epidermidis; also recorded: M. luteus; also recorded: P. aeruginosa; also recorded: C. albicans; also recorded: E. faecalis; also recorded: C. jeikeium | S. epidermidis (D) |  | 
